Values of other authors, collected in patent publication US7438896B2, “Method of skin care using lipoic and ascorbic acids” (N.V. Perricone LLC, priority 1995, dated 2008).

Tests used:
rat edema = settings: compared with lipoic alone or vitamin E alone
[1] = system: cultured human keratinocytes; settings: compositions without serine
porcine skin = settings: compositions without serine

SMILES: O=C(O)CCCC[C@@H]1CCSS1 (single isomer, unassigned) [R-enantiomer of lipoic acid]
- anti-inflammatory effect in rat edema model (rat edema): superior to lipoic alone or to vitamin E alone

SMILES: O=C(O)CCCC[C@H]1CCSS1 (single isomer, unassigned) [S-enantiomer]
- effect on the action of insulin (insulin): decreased the effect of insulin

SMILES: O=C(O)CCCCC1CCSS1 (stereo not shown) [lipoic acid, 1,2-dithiolane-3-pentanoic acid]
- effect on ceramide production [1]: had no effect
- effect on ceramide production (porcine skin): had no effect
